Experimental data: PubChem BioAssay (NCI)
Several values for one entry are separate records, joined by “and”; a condition that tells them apart may be missing. Equal entries are not always repeated.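 Briefly, cells in 96-well plates were exposed to five compound concentrations for 48 h, and endpoints were estimated by linear interpolation. GI50 = concentration required for 50% inhibition of growth. TGI is the concentration that stops growth completely.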

Tests used:
Experiment in all cases: inhibition of tumour cell growth, NCI panel, 48 h
NCI-H226 lung = system: NCI-H226 lung
CAKI-1 renal = system: CAKI-1 renal
TK-10 renal = system: TK-10 renal
CCRF-CEM leukemia = system: CCRF-CEM leukemia
NCI-H522 lung = system: NCI-H522 lung
HL-60(TB) leukemia = system: HL-60(TB) leukemia
SR leukemia = system: SR leukemia
MDA-MB-231 breast = system: MDA-MB-231 breast
T-47D breast = system: T-47D breast
BT-549 breast = system: BT-549 breast

CN(C)/C(=N/C(=S)Nc1ccccc1)SCc1ccccc1
TGI (NCI-H226 lung): > 100 µM
TGI (CAKI-1 renal): > 100 µM
TGI (TK-10 renal): > 100 µM
TGI (CCRF-CEM leukemia): > 100 µM
TGI (NCI-H522 lung): > 100 µM
TGI (HL-60(TB) leukemia): 51.4 µM

CCCCCCCCCCCCCCCC(=O)NCC(COP(=O)([O-])OCC[N+](C)(C)C)OCC (centres undefined)
TGI (NCI-H226 lung): 13.6 µM
TGI (CAKI-1 renal): 35.2 µM
TGI (TK-10 renal): 3.95 µM
TGI (SR leukemia): 18.6 µM

O=C1CCCN(c2ccccc2)N1
TGI (NCI-H226 lung): > 100 µM
TGI (CAKI-1 renal): > 100 µM
TGI (SR leukemia): > 100 µM
TGI (NCI-H522 lung): > 100 µM
TGI (HL-60(TB) leukemia): > 100 µM

CCOC(=O)C1=C(C)Nc2ccccc2S1
TGI (NCI-H226 lung): > 100 µM
TGI (CAKI-1 renal): > 100 µM
TGI (TK-10 renal): > 100 µM
TGI (SR leukemia): > 100 µM
TGI (CCRF-CEM leukemia): > 100 µM
TGI (NCI-H522 lung): > 100 µM

C=C1CCC2C(/C=C(\C)CCC1O)OC(=O)C2C (centres undefined)
GI50 (NCI-H226 lung): > 100 µM
TGI (NCI-H226 lung): > 100 µM
GI50 (CAKI-1 renal): > 100 µM
TGI (CAKI-1 renal): > 100 µM
GI50 (MDA-MB-231 breast): > 100 µM
TGI (MDA-MB-231 breast): > 100 µM
GI50 (TK-10 renal): > 100 µM
TGI (TK-10 renal): > 100 µM
GI50 (SR leukemia): > 100 µM
TGI (SR leukemia): > 100 µM
GI50 (CCRF-CEM leukemia): 31.3 µM
TGI (CCRF-CEM leukemia): > 100 µM
GI50 (NCI-H522 lung): > 100 µM
TGI (NCI-H522 lung): > 100 µM
GI50 (HL-60(TB) leukemia): 51.5 µM
TGI (HL-60(TB) leukemia): > 100 µM
GI50 (T-47D breast): > 100 µM
TGI (T-47D breast): > 100 µM

COC(=O)C(C#N)=C1c2ccccc2Oc2ccccc21
TGI (NCI-H226 lung): > 100 µM
TGI (CAKI-1 renal): > 100 µM
TGI (TK-10 renal): > 100 µM
TGI (CCRF-CEM leukemia): > 100 µM
TGI (NCI-H522 lung): 77.3 µM
TGI (HL-60(TB) leukemia): 56.4 µM

O=c1cc(-c2cccc(F)c2)[nH]c2cc3c(cc12)OCO3
GI50 (NCI-H226 lung): 0.951 µM and 0.0963 µM
TGI (NCI-H226 lung): 9.77 µM and 1.49 µM
TGI (CAKI-1 renal): > 53.3 µM
TGI (MDA-MB-231 breast): 1.03 µM
GI50 (TK-10 renal): 4.71 µM
TGI (TK-10 renal): 75 µM and 44 µM
TGI (BT-549 breast): > 100 µM
GI50 (CCRF-CEM leukemia): 0.346 µM
TGI (CCRF-CEM leukemia): 75 µM and > 10.8 µM
GI50 (NCI-H522 lung): 0.172 µM
TGI (NCI-H522 lung): 0.406 µM and 0.112 µM
GI50 (HL-60(TB) leukemia): 0.201 µM
TGI (T-47D breast): > 100 µM

Cc1ccccc1C(C#N)C(=O)C(=O)Nc1nc([N+](=O)[O-])cs1 (centres undefined)
TGI (NCI-H226 lung): > 100 µM
TGI (CAKI-1 renal): > 100 µM
TGI (TK-10 renal): > 100 µM
TGI (NCI-H522 lung): > 100 µM
TGI (HL-60(TB) leukemia): > 100 µM

O=C1NC2(CCCC2)C(=O)C12CCCC2
TGI (CAKI-1 renal): > 100 µM
TGI (TK-10 renal): > 100 µM
TGI (SR leukemia): > 100 µM
TGI (CCRF-CEM leukemia): > 100 µM
TGI (NCI-H522 lung): > 100 µM
TGI (HL-60(TB) leukemia): > 100 µM

C=C1C(O)C2CCC(C)(C)C(=O)C2=C(CC(C)C)C12CC2 (centres undefined)
GI50 (NCI-H226 lung): 43.5 µM
TGI (NCI-H226 lung): > 100 µM
GI50 (CAKI-1 renal): 31.2 µM
TGI (CAKI-1 renal): 86.6 µM
GI50 (MDA-MB-231 breast): 91.8 µM
TGI (MDA-MB-231 breast): > 100 µM
GI50 (TK-10 renal): 67.9 µM
TGI (TK-10 renal): > 100 µM
GI50 (SR leukemia): 34 µM
TGI (SR leukemia): > 100 µM
GI50 (BT-549 breast): > 100 µM
TGI (BT-549 breast): > 100 µM
GI50 (CCRF-CEM leukemia): 36.8 µM
TGI (CCRF-CEM leukemia): > 100 µM
GI50 (NCI-H522 lung): 36.6 µM
TGI (NCI-H522 lung): > 100 µM

O=C1/C(=C/c2ccc(F)cc2)CCOc2ccc([N+](=O)[O-])cc21
GI50 (NCI-H226 lung): 20.1 µM
TGI (NCI-H226 lung): 39.6 µM
GI50 (CAKI-1 renal): 2.08 µM
TGI (CAKI-1 renal): 4.73 µM
GI50 (MDA-MB-231 breast): 13.3 µM
TGI (MDA-MB-231 breast): 31.9 µM
GI50 (TK-10 renal): 3.88 µM
TGI (TK-10 renal): 16.1 µM
GI50 (SR leukemia): 2.07 µM
TGI (SR leukemia): 6.35 µM
GI50 (BT-549 breast): 3 µM
TGI (BT-549 breast): 7.82 µM
GI50 (CCRF-CEM leukemia): 0.761 µM
TGI (CCRF-CEM leukemia): 3.47 µM
GI50 (NCI-H522 lung): 1.91 µM
TGI (NCI-H522 lung): 4.14 µM

O=C(/C=C/c1ccccc1)/C=C/c1ccccc1O
TGI (NCI-H226 lung): 58.1 µM
TGI (CAKI-1 renal): 64.6 µM
TGI (TK-10 renal): 96.3 µM
TGI (SR leukemia): 72.7 µM
TGI (CCRF-CEM leukemia): 48.1 µM
TGI (NCI-H522 lung): 33.3 µM
TGI (HL-60(TB) leukemia): 35.8 µM

NC(N)=N/N=C(/c1ccccc1)c1ccc(F)cc1
GI50 (NCI-H226 lung): 1.06 µM
TGI (NCI-H226 lung): 14.5 µM
GI50 (CAKI-1 renal): 0.404 µM
TGI (CAKI-1 renal): 16.1 µM
GI50 (MDA-MB-231 breast): 0.649 µM
TGI (MDA-MB-231 breast): 14 µM
GI50 (TK-10 renal): 0.506 µM
TGI (TK-10 renal): 18.4 µM
GI50 (SR leukemia): 0.286 µM
TGI (SR leukemia): 6.11 µM
GI50 (BT-549 breast): 0.551 µM
TGI (BT-549 breast): 2.85 µM
GI50 (CCRF-CEM leukemia): 0.493 µM
TGI (CCRF-CEM leukemia): > 74.6 µM
GI50 (NCI-H522 lung): 0.267 µM
TGI (NCI-H522 lung): 1.45 µM
GI50 (HL-60(TB) leukemia): 3.67 µM

O=C(c1ccc2ccccc2c1)c1c(C(F)(F)F)n([O-])c2cc(Cl)c(Cl)cc2[n+]1=O
GI50 (NCI-H226 lung): 1.46 µM
TGI (NCI-H226 lung): 2.92 µM
GI50 (CAKI-1 renal): 1.35 µM
TGI (CAKI-1 renal): 2.63 µM
GI50 (MDA-MB-231 breast): 1.49 µM
TGI (MDA-MB-231 breast): 2.82 µM
GI50 (TK-10 renal): 1.77 µM
TGI (TK-10 renal): 3.15 µM
GI50 (BT-549 breast): 1.48 µM
TGI (BT-549 breast): 2.8 µM
GI50 (CCRF-CEM leukemia): 2.41 µM
TGI (CCRF-CEM leukemia): 4.78 µM
GI50 (NCI-H522 lung): 1.49 µM
TGI (NCI-H522 lung): 2.81 µM
GI50 (HL-60(TB) leukemia): 1.81 µM
TGI (HL-60(TB) leukemia): 3.87 µM
GI50 (T-47D breast): 1.24 µM
TGI (T-47D breast): 3.01 µM

CCOC(=O)C1(CC)CCCCC(=O)N1 (centres undefined)
TGI (CAKI-1 renal): > 100 µM
TGI (TK-10 renal): > 100 µM
TGI (CCRF-CEM leukemia): > 100 µM
TGI (HL-60(TB) leukemia): > 100 µM

CC(=O)[CH-]C(=O)c1ccccc1.CC(=O)[CH-]C(=O)c1ccccc1.CCCCCCCCCCCCCCCCCC(=O)[O-].CCCCCCCCCCCCCCCCCC(=O)[O-].[Ti+4]
GI50 (NCI-H226 lung): 14.5 µM
TGI (NCI-H226 lung): 34.3 µM
GI50 (CAKI-1 renal): 19.8 µM
TGI (CAKI-1 renal): 39.9 µM
GI50 (TK-10 renal): 34.8 µM
TGI (TK-10 renal): 99.1 µM
GI50 (CCRF-CEM leukemia): 23.2 µM
TGI (CCRF-CEM leukemia): 86.3 µM
GI50 (NCI-H522 lung): 23.1 µM
TGI (NCI-H522 lung): 62.4 µM
GI50 (HL-60(TB) leukemia): 19.3 µM
TGI (HL-60(TB) leukemia): 43.9 µM

CSC1=NC=CCN1C
TGI (NCI-H226 lung): > 100 µM
TGI (CAKI-1 renal): > 100 µM
TGI (TK-10 renal): > 100 µM
TGI (CCRF-CEM leukemia): > 100 µM
TGI (NCI-H522 lung): > 100 µM
TGI (HL-60(TB) leukemia): > 100 µM

C=CC1=CSNN1
TGI (CAKI-1 renal): > 100 µM
TGI (TK-10 renal): > 100 µM
TGI (CCRF-CEM leukemia): > 100 µM
TGI (NCI-H522 lung): > 100 µM
TGI (HL-60(TB) leukemia): > 100 µM

C#CCNC(=O)NC(CCCNC(=O)OCc1ccccc1)C(=O)OCc1ccccc1 (centres undefined)
TGI (NCI-H226 lung): > 100 µM
TGI (CAKI-1 renal): 87.5 µM
TGI (TK-10 renal): > 100 µM
TGI (SR leukemia): > 100 µM
TGI (CCRF-CEM leukemia): > 100 µM
TGI (NCI-H522 lung): 62.7 µM
TGI (HL-60(TB) leukemia): 59.3 µM

COC(=O)C(c1[nH]nc2ccccc12)C(C(=O)OC)c1[nH]nc2ccccc12 (centres undefined)
TGI (NCI-H226 lung): > 100 µM
TGI (TK-10 renal): > 100 µM
TGI (SR leukemia): > 100 µM
TGI (CCRF-CEM leukemia): > 100 µM
TGI (HL-60(TB) leukemia): 50.5 µM

COc1ccc(-c2cc(-c3cc(Cl)ccc3Cl)nc3[nH]c(-c4cc(F)c(Cl)cc4Cl)cc(=O)c23)cc1
GI50 (NCI-H226 lung): 20.5 µM
TGI (NCI-H226 lung): 63.6 µM
GI50 (CAKI-1 renal): 34.1 µM
TGI (CAKI-1 renal): > 100 µM
GI50 (MDA-MB-231 breast): 20.7 µM
TGI (MDA-MB-231 breast): 83.8 µM
GI50 (BT-549 breast): 29.6 µM
TGI (BT-549 breast): > 100 µM
GI50 (CCRF-CEM leukemia): 18.4 µM
TGI (CCRF-CEM leukemia): 55.1 µM
GI50 (NCI-H522 lung): 20.4 µM
TGI (NCI-H522 lung): > 100 µM
GI50 (T-47D breast): > 100 µM
TGI (T-47D breast): > 100 µM

CCC(C)C1NC(=O)c2nc(oc2-c2ccccc2)-c2csc(n2)-c2csc(n2)-c2nc(oc2C)-c2coc(n2)CNC(=O)C(C(C)CC)NC1=O (centres undefined)
GI50 (CAKI-1 renal): 0.0371 µM
TGI (CAKI-1 renal): 0.151 µM
GI50 (MDA-MB-231 breast): 0.035 µM
TGI (MDA-MB-231 breast): 0.135 µM
GI50 (SR leukemia): 0.0327 µM
TGI (SR leukemia): 0.212 µM
GI50 (BT-549 breast): 0.0659 µM
TGI (BT-549 breast): 0.204 µM
